Structures can show the parent of a compound that is named as a salt. Where two headings read alike, the source gives them in different places.

These results are taken from patent US8772287B2, “Pyrimidinyl and 1,3,5-triazinyl benzimidazole sulfonamides and their use in cancer therapy” (VetDC, Inc., priority 2009, dated 2014).

The test system of one series is NZB5. Nature of the series: Cellular growth inhibition, NZB5 (3H-thymidine incorporation). Format: cell-based, human. The protocol: (§1) The compounds were evaluated against two early passage human cell lines NZB5 and NZOV9 (Marshall et al., Oncol. Res. 2004, 14, 297). The cells were grown in ITS medium (α-modified minimal essential medium supplemented insulin, transferrin, selenite, and 5% fetal bovine serum) and grown on 96-well tissue culture plates under an atmosphere of 5% O2, 5% CO2, and 90% N2. Individual wells contained 500-1,000 cells (depending on the growth rate) in a volume of 150 μL. Compounds were added at 10-fold concentration steps to a maximum of 20 μM and plates were incubated for five days, with ^3H-thymidine being added over the last 6 hrs. Cells were harvested and incorporated radioactivity measured. Duplicate samples were analyzed for each compound dose with multiple control samples.
(In general: Uptake of a labelled nucleoside into DNA is a usual measure of proliferation.)

A further series deals with NZOV9. In words: Cellular growth inhibition, NZOV9 (3H-thymidine incorporation). In kind it is cell-based, human. The protocol: as §1
[1] abbreviates: Homo sapiens, NZB5, five days incubation, 3H-thymidine over the last 6 hrs, read-out: Cell IC50 NZB5.
The mark [2] stands for this setting: Homo sapiens, NZOV9, five days incubation, 3H-thymidine over the last 6 hrs, read-out: Cell IC50 NZOV9.
The mark [3] stands for this setting: read-out: Cell IC50 NZB5, five days incubation, 3H-thymidine over the last 6 hrs.
Setting [4] is: read-out: Cell IC50 NZOV9, five days incubation, 3H-thymidine over the last 6 hrs.

In general, melting point refers to the temperature, or range, at which the solid turns liquid. As for `COc1cccc2c1nc(C(F)F)n2-c1nc(N2CCOCC2)nc(N(C)C2CCCN(S(C)(=O)=O)C2)n1` (centres unmarked), the melting point is 201 to 203 °C.
In general, IC50 refers to the midpoint of a concentration-inhibition curve. As to `COc1cc(N)cc2c1nc(C(F)F)n2-c1nc(N2CCOCC2)nc(N2CCN(S(=O)(=O)CCN(C)C)CC2)n1` [Example 84, N-[2-({4-[4-[6-amino-2-(difluoromethyl)-4-methoxy-1H-benzimidazol-1-yl]-6-(4-morpholinyl)-1,3,5-triazin-2-yl]-1-piperazinyl}sulfonyl)ethyl]-N,N-dimethylamine], the concentration for half-maximal inhibition (IC50) in the series with NZB5 (setting [1]) was below 100 nM; in the series with NZOV9 (setting [2]), above 1000 nM.
`COc1cccc2c1nc(C(F)F)n2-c1nc(N2CCOCC2)nc(N2CCCC(NS(=O)(=O)CCl)C2)n1` (stereo in doubt) [Example 62, chloro-N-{(3S)-1-[4-[2-(difluoromethyl)-4-methoxy-1H-benzimidazol-1-yl]-6-(4-morpholinyl)-1,3,5-triazin-2-yl]-3-piperidinyl}methanesulfonamide] registered a melting point of 166 to 168 °C.
Same read-out and setting: the figure for `COc1cccc2c1nc(C(F)F)n2-c1nc(N2CCOCC2)c2cnn(C3CCN(S(=O)(=O)CCN(C)C)CC3)c2n1` (as salt: methanesulfonate) [Example 99, N-[2-({4-[6-[2-(difluoromethyl)-4-methoxy-1H-benzimidazol-1-yl]-4-(4-morpholinyl)-1H-pyrazolo[3,4-d]pyrimidin-1-yl]-1-piperidinyl}sulfonyl)ethyl]-N,N-dimethylamine] is 191 to 193 °C.
Consider `COc1cccc2c1nc(C(F)F)n2-c1nc(OC2CCN(S(=O)(=O)CCN3CCOCC3)CC2)nc(N2CCOCC2)n1` [Example 51, 2-(difluoromethyl)-4-methoxy-1-{4-(4-morpholinyl)-6-[(1-{[2-(4-morpholinyl)ethyl]sulfonyl}-4-piperidinyl)oxy]-1,3,5-triazin-2-yl}-1H-benzimidazole], for which the 50% inhibitory concentration (IC50) was above 1000 nM in the series on NZB5 (setting [1]) and 100 to 1000 nM in the series with NZOV9 (setting [2]).
Take `COc1cccc2c1nc(C(F)F)n2-c1nc(N2CCOCC2)nc(N(C)[C@H]2CCN(S(C)(=O)=O)C2)n1` [Example 35, 4-[2-(difluoromethyl)-4-methoxy-1H-benzimidazol-1-yl]-N-methyl-N-[(3S)-1-(methylsulfonyl)pyrrolidinyl]-6-(4-morpholinyl)-1,3,5-triazin-2-amine]: the IC50 with NZB5 (setting [3]) and with NZOV9 (setting [4]) was below 100 nM throughout.
Turning to `COc1cccc2c1nc(C(F)F)n2-c1nc(N2CCOCC2)c2cnn(C3CCN(S(=O)(=O)CCN(C)C)CC3)c2n1` [Example 99, N-[2-({4-[6-[2-(difluoromethyl)-4-methoxy-1H-benzimidazol-1-yl]-4-(4-morpholinyl)-1H-pyrazolo[3,4-d]pyrimidin-1-yl]-1-piperidinyl}sulfonyl)ethyl]-N,N-dimethylamine], the IC50 with NZB5 (setting [1]) and in the series on NZOV9 (setting [2]) was below 100 nM throughout.
Compound `CN(C)CCS(=O)(=O)N1CCN(c2nc(N3CCOCC3)nc(-n3c(C(F)F)nc4ccccc43)n2)CC1` (as salt: hydrochloride) [Example 83, N-[2-({4-[4-[2-(difluoromethyl)-1H-benzimidazol-1-yl]-6-(4-morpholinyl)-1,3,5-triazin-2-yl]-1-piperazinyl}sulfonyl)ethyl]-N,N-dimethylamine] had a melting point of 244 to 246 °C.
Turning to `COc1cccc2c1nc(C(F)F)n2-c1nc(N[C@H]2CC[C@@H](NS(C)(=O)=O)CC2)nc(N2CCOCC2)n1` [Example 79, cis-N-(4-{[4-[2-(difluoromethyl)-4-methoxy-1H-benzimidazol-1-yl]-6-(4-morpholinyl)-1,3,5-triazin-2-yl]amino}cyclohexyl)methanesulfonamide], the IC50 is 100 to 1000 nM in the series with NZB5 (Homo sapiens, NZB5, read-out: Cell IC50 NZB5) and below 100 nM in the series with NZOV9 (Homo sapiens, NZOV9, read-out: Cell IC50 NZOV9).
As for `COc1cccc2c1nc(C(F)F)n2-c1nc(N[C@H]2CCN(S(C)(=O)=O)C2)nc(N2CCOCC2)n1` [Example 34, 4-[2-(difluoromethyl)-4-methoxy-1H-benzimidazol-1-yl]-N-[(3S)-1-(methylsulfonyl)pyrrolidinyl]-6-(4-morpholinyl)-1,3,5-triazin-2-amine], the IC50 in the series on NZB5 (setting [3]) was 100 to 1000 nM; in the series on NZOV9 (setting [4]), below 100 nM.
The compound `COc1cccc2c1nc(C(F)F)n2-c1nc(-c2ccc(NS(=O)(=O)CCN(C)C)cc2)nc(N2CCOCC2)n1` (as salt: methanesulfonate) [Example 74, N-{4-[4-[2-(difluoromethyl)-4-methoxy-1H-benzimidazol-1-yl]-6-(4-morpholinyl)-1,3,5-triazin-2-yl]phenyl}-2-(dimethylamino)ethanesulfonamide] came in with a melting point of 218 to 220 °C.
Same read-out and setting: the figure for `COc1cccc2c1nc(C(F)F)n2-c1nc(N2CCOCC2)nc(N(CCCN(C)C)C2CCN(S(=O)(=O)CCl)CC2)n1` (as salt: hydrochloride) [Example 59, N^1-{1-[(chloromethyl)sulfonyl]-4-piperidinyl}-N^1-[4-[2-(difluoromethyl)-4-methoxy-1H-benzimidazol-1-yl]-6-(4-morpholinyl)-1,3,5-triazin-2-yl]-N^3,N^3-dimethyl-1,3-propanediamine] is 222 to 225 °C; for `COc1cccc2c1nc(C(F)F)n2-c1nc(-c2ccc(N(C)S(=O)(=O)CCN(C)C)cc2)nc(N2CCOCC2)n1` (as salt: methanesulfonate) [Example 75, N-{4-[4-[2-(difluoromethyl)-4-methoxy-1H-benzimidazol-1-yl]-6-(4-morpholinyl)-1,3,5-triazin-2-yl]phenyl}-2-(dimethylamino)-N-methylethanesulfonamide] it is 218 to 220 °C; for `COc1cccc2c1nc(C(F)F)n2-c1nc(-c2ccc(S(=O)(=O)N3CCN(C)CC3)cc2)nc(N2CCOCC2)n1` (as salt: methanesulfonate) [Example 95, 2-(difluoromethyl)-4-methoxy-1-[4-{4-[(4-methyl-1-piperazinyl)sulfonyl]phenyl}-6-(4-morpholinyl)-1,3,5-triazin-2-yl]-1H-benzimidazole] it is 289 to 292 °C.
Same read-out and setting: the result for `COc1cccc2c1nc(C(F)F)n2-c1nc(N2CCOCC2)nc(N2CCC(N(CCCN(C)C)S(=O)(=O)CCl)CC2)n1` (as salt: hydrochloride) [Example 60, chloro-N-{1-[4-[2-(difluoromethyl)-4-methoxy-1H-benzimidazol-1-yl]-6-(4-morpholinyl)-1,3,5-triazin-2-yl]-4-piperidinyl}-N-[3-(dimethylamino)propyl]methanesulfonamide] reads 260 to 263 °C; that for `COc1cc(N)cc2c1nc(C(F)F)n2-c1nc(N2CCOCC2)nc(N2CCN(S(=O)(=O)CCN(C)C)CC2)n1` (as salt: methanesulfonate) [Example 84, N-[2-({4-[4-[6-amino-2-(difluoromethyl)-4-methoxy-1H-benzimidazol-1-yl]-6-(4-morpholinyl)-1,3,5-triazin-2-yl]-1-piperazinyl}sulfonyl)ethyl]-N,N-dimethylamine], 238 °C (dec.).
On to `COc1cccc2c1nc(C(F)F)n2-c1nc(OC2CCN(S(=O)(=O)CCN3CCOCC3)CC2)nc(N2CCOCC2)n1` (as salt: hydrochloride) [Example 51, 2-(difluoromethyl)-4-methoxy-1-{4-(4-morpholinyl)-6-[(1-{[2-(4-morpholinyl)ethyl]sulfonyl}-4-piperidinyl)oxy]-1,3,5-triazin-2-yl}-1H-benzimidazole], for which the melting point was 255 to 259 °C.
